From the NIST ThermoML archive (doi:10.1021/je050020m)

Experiment: xn = mol fraction of the nth substance listed
Conditions: Liquid, Vibrating tube method

CCCCCCCCCC [decane] + O=C=O
Conditions | mass density [kg/m3]
352.78 K, 12025 kPa, x2 = 0.0551 | 697.67
352.78 K, 13009 kPa, x2 = 0.0551 | 698.59
352.78 K, 14003 kPa, x2 = 0.0551 | 699.6
352.78 K, 15017 kPa, x2 = 0.0551 | 700.5
352.78 K, 16009 kPa, x2 = 0.0551 | 701.58
352.78 K, 17043 kPa, x2 = 0.0551 | 702.49
352.78 K, 18011 kPa, x2 = 0.0551 | 703.38
352.78 K, 18999 kPa, x2 = 0.0551 | 704.26
352.78 K, 19980 kPa, x2 = 0.0551 | 705.14
352.78 K, 21012 kPa, x2 = 0.0551 | 706.06
352.78 K, 22017 kPa, x2 = 0.0551 | 706.96
352.78 K, 23034 kPa, x2 = 0.0551 | 707.84
352.78 K, 24044 kPa, x2 = 0.0551 | 708.75
352.78 K, 24991 kPa, x2 = 0.0551 | 709.57
352.79 K, 6023 kPa, x2 = 0.2369 | 695.17
352.79 K, 7016 kPa, x2 = 0.2369 | 696.39
352.79 K, 8017 kPa, x2 = 0.2369 | 697.7
352.79 K, 9014 kPa, x2 = 0.2369 | 698.95
352.79 K, 10006 kPa, x2 = 0.2369 | 700.1
352.79 K, 11019 kPa, x2 = 0.2369 | 701.32
352.79 K, 12015 kPa, x2 = 0.2369 | 702.48
352.79 K, 13014 kPa, x2 = 0.2369 | 703.71
352.79 K, 14010 kPa, x2 = 0.2369 | 704.77
352.79 K, 15002 kPa, x2 = 0.2369 | 705.93
352.79 K, 16000 kPa, x2 = 0.2369 | 707.03
352.79 K, 17020 kPa, x2 = 0.2369 | 708.08
352.79 K, 18006 kPa, x2 = 0.2369 | 709.15
352.79 K, 19014 kPa, x2 = 0.2369 | 710.21
352.79 K, 19955 kPa, x2 = 0.2369 | 711.22
352.79 K, 21069 kPa, x2 = 0.2369 | 712.3
352.79 K, 22042 kPa, x2 = 0.2369 | 713.3
352.79 K, 23032 kPa, x2 = 0.2369 | 714.28
352.79 K, 24057 kPa, x2 = 0.2369 | 715.33
352.79 K, 24999 kPa, x2 = 0.2369 | 716.29
352.8 K, 8029 kPa, x2 = 0.4536 | 702.49
352.8 K, 9011 kPa, x2 = 0.4536 | 704.17
352.8 K, 10022 kPa, x2 = 0.4536 | 705.86
352.8 K, 11012 kPa, x2 = 0.4536 | 707.47
352.8 K, 12018 kPa, x2 = 0.4536 | 709.07
352.8 K, 13013 kPa, x2 = 0.4536 | 710.62
352.8 K, 14019 kPa, x2 = 0.4536 | 712.14
352.8 K, 15017 kPa, x2 = 0.4536 | 713.63
352.8 K, 16008 kPa, x2 = 0.4536 | 715.06
352.8 K, 17028 kPa, x2 = 0.4536 | 716.51
352.8 K, 18018 kPa, x2 = 0.4536 | 717.9
352.8 K, 19024 kPa, x2 = 0.4536 | 719.28
352.8 K, 20015 kPa, x2 = 0.4536 | 720.6
352.8 K, 21003 kPa, x2 = 0.4536 | 721.91
352.8 K, 22029 kPa, x2 = 0.4536 | 723.29
352.8 K, 23006 kPa, x2 = 0.4536 | 724.51
352.8 K, 24025 kPa, x2 = 0.4536 | 725.86
352.8 K, 25013 kPa, x2 = 0.4536 | 727.09
362.63 K, 15022 kPa, x2 = 0.8114 | 681.16
362.63 K, 16023 kPa, x2 = 0.8114 | 688.18
362.63 K, 17027 kPa, x2 = 0.8114 | 694.15
362.63 K, 18027 kPa, x2 = 0.8114 | 699.67
362.63 K, 19028 kPa, x2 = 0.8114 | 704.83
362.63 K, 20026 kPa, x2 = 0.8114 | 709.67
362.63 K, 21017 kPa, x2 = 0.8114 | 714.17
362.63 K, 22023 kPa, x2 = 0.8114 | 718.48
362.63 K, 23019 kPa, x2 = 0.8114 | 722.51
362.63 K, 24030 kPa, x2 = 0.8114 | 726.42
362.63 K, 25024 kPa, x2 = 0.8114 | 730.11
362.65 K, 5978 kPa, x2 = 0.2369 | 686.43
362.65 K, 7016 kPa, x2 = 0.2369 | 687.86
362.65 K, 8020 kPa, x2 = 0.2369 | 689.21
362.65 K, 9035 kPa, x2 = 0.2369 | 690.58
362.65 K, 10044 kPa, x2 = 0.2369 | 691.88
362.65 K, 11011 kPa, x2 = 0.2369 | 693.13
362.65 K, 12005 kPa, x2 = 0.2369 | 694.38
362.65 K, 13039 kPa, x2 = 0.2369 | 695.64
362.65 K, 14013 kPa, x2 = 0.2369 | 696.82
362.65 K, 15072 kPa, x2 = 0.2369 | 698.07
362.65 K, 15510 kPa, x2 = 0.9663 | 452.61
362.65 K, 16012 kPa, x2 = 0.2369 | 699.18
362.65 K, 16012 kPa, x2 = 0.9663 | 471.04
362.65 K, 17007 kPa, x2 = 0.9663 | 504.42
362.65 K, 17009 kPa, x2 = 0.2369 | 700.33
362.65 K, 18008 kPa, x2 = 0.2369 | 701.44
362.65 K, 18010 kPa, x2 = 0.9663 | 534.34
362.65 K, 19013 kPa, x2 = 0.9663 | 561.23
362.65 K, 19020 kPa, x2 = 0.2369 | 702.57
362.65 K, 20006 kPa, x2 = 0.2369 | 703.64
362.65 K, 20015 kPa, x2 = 0.9663 | 585.01
362.65 K, 21029 kPa, x2 = 0.9663 | 606.13
362.65 K, 21068 kPa, x2 = 0.2369 | 704.82
362.65 K, 22007 kPa, x2 = 0.2369 | 705.81
362.65 K, 22007 kPa, x2 = 0.9663 | 624.31
362.65 K, 23022 kPa, x2 = 0.9663 | 641.03
362.65 K, 23055 kPa, x2 = 0.2369 | 706.93
362.65 K, 24015 kPa, x2 = 0.9663 | 655.59
362.65 K, 24030 kPa, x2 = 0.2369 | 707.95
362.65 K, 25028 kPa, x2 = 0.9663 | 669.28
362.65 K, 25056 kPa, x2 = 0.2369 | 709.02
362.66 K, 2031 kPa, x2 = 0.0551 | 678.97
362.66 K, 3029 kPa, x2 = 0.0551 | 680.17
362.66 K, 4134 kPa, x2 = 0.0551 | 681.5
362.66 K, 5034 kPa, x2 = 0.0551 | 682.58
362.66 K, 6050 kPa, x2 = 0.0551 | 683.77
362.66 K, 7045 kPa, x2 = 0.0551 | 684.91
362.66 K, 8030 kPa, x2 = 0.0551 | 686.02
362.66 K, 9020 kPa, x2 = 0.0551 | 687.12
362.66 K, 9024 kPa, x2 = 0.4536 | 693.68
362.66 K, 10012 kPa, x2 = 0.4536 | 695.47
362.66 K, 10044 kPa, x2 = 0.0551 | 688.25
362.66 K, 11025 kPa, x2 = 0.0551 | 689.34
362.66 K, 11031 kPa, x2 = 0.4536 | 697.25
362.66 K, 11987 kPa, x2 = 0.0551 | 690.35
362.66 K, 12002 kPa, x2 = 0.4536 | 698.93
362.66 K, 13025 kPa, x2 = 0.0551 | 691.46
362.66 K, 13028 kPa, x2 = 0.4536 | 700.66
362.66 K, 14008 kPa, x2 = 0.4536 | 702.25
362.66 K, 14075 kPa, x2 = 0.0551 | 692.5
362.66 K, 15024 kPa, x2 = 0.4536 | 703.87
362.66 K, 15026 kPa, x2 = 0.0551 | 693.52
362.66 K, 16000 kPa, x2 = 0.4536 | 705.42
362.66 K, 16020 kPa, x2 = 0.0551 | 694.47
362.66 K, 17003 kPa, x2 = 0.0551 | 695.45
362.66 K, 17017 kPa, x2 = 0.4536 | 706.96
362.66 K, 18002 kPa, x2 = 0.4536 | 708.44
362.66 K, 18032 kPa, x2 = 0.0551 | 696.46
362.66 K, 19030 kPa, x2 = 0.0551 | 697.38
362.66 K, 19030 kPa, x2 = 0.4536 | 709.94
362.66 K, 19998 kPa, x2 = 0.0551 | 698.32
362.66 K, 20001 kPa, x2 = 0.4536 | 711.37
362.66 K, 21029 kPa, x2 = 0.4536 | 712.8
362.66 K, 21052 kPa, x2 = 0.0551 | 699.32
362.66 K, 22014 kPa, x2 = 0.4536 | 714.18
362.66 K, 22028 kPa, x2 = 0.0551 | 700.22
362.66 K, 22996 kPa, x2 = 0.0551 | 701.1
362.66 K, 23024 kPa, x2 = 0.4536 | 715.57
362.66 K, 24006 kPa, x2 = 0.4536 | 716.91
362.66 K, 24036 kPa, x2 = 0.0551 | 702.1
362.66 K, 25008 kPa, x2 = 0.0551 | 702.93
362.66 K, 25025 kPa, x2 = 0.4536 | 718.29
